# Paper PMC8040043, “Synthesis, Inhibitory Activity, and In Silico Modeling of Selective COX-1 Inhibitors with a Quinazoline Core” (ACS Medicinal Chemistry Letters, 2021)
# Key:
# Ovine COX-1 = target: T1, Ovine COX-1 (Ovis aries, UniProt P05979); assay: COX-1 in vitro enzymatic assay (PGE2 ELISA); format: biochemical; conditions: for inhibition at 20 µM: compound at 20 μM; for selectivity index (COX-2/COX-1): ratio of IC50 COX-2 / IC50 COX-1
# T1 construct: purchased Sigma-Aldrich
# T1 sequence (P05979 25-600): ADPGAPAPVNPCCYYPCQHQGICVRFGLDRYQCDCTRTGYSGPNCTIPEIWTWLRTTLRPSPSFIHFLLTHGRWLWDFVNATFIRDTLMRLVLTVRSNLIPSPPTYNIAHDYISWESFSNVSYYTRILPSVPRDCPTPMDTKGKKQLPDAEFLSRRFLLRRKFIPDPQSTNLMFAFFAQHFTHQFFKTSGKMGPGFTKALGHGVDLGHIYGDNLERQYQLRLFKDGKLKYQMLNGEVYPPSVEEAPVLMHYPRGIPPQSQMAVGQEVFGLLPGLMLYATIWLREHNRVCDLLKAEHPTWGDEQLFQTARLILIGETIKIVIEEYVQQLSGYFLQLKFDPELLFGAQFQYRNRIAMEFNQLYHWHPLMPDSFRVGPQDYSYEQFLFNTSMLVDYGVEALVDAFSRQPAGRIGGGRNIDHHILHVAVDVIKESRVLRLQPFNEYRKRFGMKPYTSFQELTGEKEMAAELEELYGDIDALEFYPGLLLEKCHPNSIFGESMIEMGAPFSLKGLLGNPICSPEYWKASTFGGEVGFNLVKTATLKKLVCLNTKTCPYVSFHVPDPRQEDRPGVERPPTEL
# Protocol: (§1) The inhibitory activity of compounds was tested using in vitro enzymatic assay. Ovine COX-1 (1 unit/reaction) or human recombinant COX-2 (0.5 unit/reaction; both enzymes Sigma-Aldrich, USA) was added to 180 µL of 100 mM Tris buffer (pH 8.0), containing 5 μM porcine hematin, 18 mM L-epinephrine, and 50 μM Na2EDTA. Ten µL of tested compound dissolved in DMSO or pure DMSO (as a blank) were added to the reaction.
# (§2) Sigma-Aldrich, USA) was used as a reference inhibitor. After 5 min incubation at room temperature, reaction was initiated by 5 µL of arachidonic acid (10 µM) and incubated 20 min in 37°C. Then the reaction was stopped by 20 µL of formic acid (10% v/v). The concentration of prostaglandin E2 (PGE2) was measured with Prostaglandin E2 ELISA kit (Enzo Life Sciences, USA). Reaction mixture was diluted 1:15 in assay buffer (provided in the kit) and incubated according to the manufacturer instructions.
# (§3) The concentration of PGE2 produced during the reaction was estimated according to absorbance […]
# (§4) inhibitory activity was calculated as percentual inhibition of PGE2 production compared to blank. At first, the inhibitory activity of compounds was tested at 20 µM to see if there is any activity. IC50 […]
# (§5) of COX-2. The level of percentual inhibition was chosen based on the percentual inhibition caused by […]
# (§6) All the experiments were carried out in duplicates and repeated at least two times. To test whether increasing substrate concentration influences the activity of […]
# (§7) reference compound. The inhibitory activity was calculated as percentual inhibition of PGE2 production compared to blank with respective concentration of AA. […]
# human recombinant COX-2 = target: T2, human recombinant COX-2 (Homo sapiens, UniProt P35354); assay: COX-2 in vitro enzymatic assay (PGE2 ELISA); format: biochemical; conditions: for inhibition at 20 µM: compound at 20 μM; for inhibition of COX-2 (in words): at 50 μM
# T2 construct: purchased Sigma-Aldrich
# T2 sequence (P35354 18-604): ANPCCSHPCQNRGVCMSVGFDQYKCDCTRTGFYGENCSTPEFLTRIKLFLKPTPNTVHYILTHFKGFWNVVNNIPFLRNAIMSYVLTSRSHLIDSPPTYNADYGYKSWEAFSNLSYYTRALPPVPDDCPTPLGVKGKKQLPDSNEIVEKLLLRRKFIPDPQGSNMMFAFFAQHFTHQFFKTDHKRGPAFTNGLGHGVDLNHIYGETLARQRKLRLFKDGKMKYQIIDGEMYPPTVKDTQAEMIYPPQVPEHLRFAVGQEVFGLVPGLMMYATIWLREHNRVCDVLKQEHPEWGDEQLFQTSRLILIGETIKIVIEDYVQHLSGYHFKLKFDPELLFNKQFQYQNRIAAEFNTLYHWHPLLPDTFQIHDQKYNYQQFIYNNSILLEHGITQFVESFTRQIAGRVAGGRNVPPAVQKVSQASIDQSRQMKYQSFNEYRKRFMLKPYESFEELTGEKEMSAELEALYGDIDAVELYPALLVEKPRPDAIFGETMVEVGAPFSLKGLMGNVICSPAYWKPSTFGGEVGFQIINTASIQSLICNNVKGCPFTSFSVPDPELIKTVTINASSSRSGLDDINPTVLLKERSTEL
# Protocol: as §1, §2, §3, §4, §5, §6, §7
inhibition at 20 µM (Ovine COX-1) [%],inhibition at 20 µM (human recombinant COX-2) [%],IC50 (Ovine COX-1) [µM],selectivity index (COX-2/COX-1) (Ovine COX-1),IC50 (human recombinant COX-2) [µM],inhibition of COX-2 (in words) (human recombinant COX-2),inhibitory activity in COX assays (in words) (Ovine COX-1; less than 50% inhibition on both COX isoforms considered inactive),SMILES
-16.5,24.2,–,–,–,–,–,COc1ccc(CNc2nc(N3CCNCC3)nc3cc(-c4ccc(OC)cc4)ccc23)cc1 [7c]
-23.6,8.82,–,–,–,–,–,COc1ccc(-c2ccc3c(NCc4ccc(F)c(F)c4)nc(N4CCCC4)nc3c2)cc1 [7l]
32.1,3.22,–,–,–,–,–,COc1ccc(CNc2nc(N3CCCC3)nc3cc(-c4ccc(F)cc4)ccc23)cc1 [7f]
92.4,32.3,–,–,> 50,did not inhibit,–,COc1ccc(CNc2nc(Cl)nc3cc(-c4cccs4)ccc23)cc1 [6c]
-10.9,-1.39,–,–,–,–,–,CCN(CC)c1nc(NCc2ccc(OC)cc2)c2ccc(-c3ccc(OC)cc3)cc2n1 [7d]
-13.9,-10.1,–,–,–,–,–,COc1ccc(CNc2nc(N3CCNCC3)nc3cc(-c4ccc(F)cc4)ccc23)cc1 [7g]
-3.35,0.8,–,–,–,–,–,COc1ccc(CNc2nc(N3CCOCC3)nc3cc(-c4ccc(OC)cc4)ccc23)cc1 [7a]
82.2,27.5,–,–,> 50,–,–,Cc1ccc(Nc2nc(/C=C/c3ccccc3)nc3cc(Br)ccc23)cc1 [8a]
84.7,21.5,1.58 ± 0.89,COX-1-selective,> 50,–,–,Fc1ccc(CNc2nc(/C=C/c3ccccc3)nc3cc(Br)ccc23)cc1F [8b]
6.91,19.4,–,–,–,–,–,COc1ccc(CNc2nc(N3CCCC3)nc3cc(-c4ccc(OC)cc4)ccc23)cc1 [7b]
-38.1,-2.17,–,–,–,–,inactive,COc1ccc(CNc2nc(N3CCCC3)nc3cc(-c4cccs4)ccc23)cc1 [7j]
-1.12,4.43,–,–,–,–,–,CCN(CC)c1nc(NCc2ccc(OC)cc2)c2ccc(-c3ccc(F)cc3)cc2n1 [7h]
34.1,7.04,–,–,–,–,–,COc1ccc(CNc2nc(Cl)nc3cc(-c4ccc(OC)cc4)ccc23)cc1 [6a]
6.66,7.98,–,–,–,–,–,COc1ccc(-c2ccc3c(NCc4ccc(F)c(F)c4)nc(N4CCOCC4)nc3c2)cc1 [7k]

# Second part, the compound before the results:
SMILES,inhibition at 20 µM (Ovine COX-1) [%],inhibition at 20 µM (human recombinant COX-2) [%],IC50 (Ovine COX-1) [µM],selectivity index (COX-2/COX-1) (Ovine COX-1),IC50 (human recombinant COX-2) [µM],inhibition of COX-2 (in words) (human recombinant COX-2),inhibitory activity in COX assays (in words) (Ovine COX-1; less than 50% inhibition on both COX isoforms considered inactive)
Fc1ccc(CNc2nc(/C=C/c3ccccc3)nc3ccccc23)cc1F [3k],96.8,71.8,1.9 ± 0.69,5.32,10.1 ± 1.38,–,–
O=[N+]([O-])c1ccc(Nc2nc(/C=C/c3ccccc3)nc3ccccc23)cc1 [3g],13.7,-24.4,–,–,–,–,–
CCOC(=O)c1ccc(Nc2nc(/C=C/c3ccccc3)nc3ccccc23)cc1 [3e],6.76,-16.3,–,–,–,–,–
COc1ccc(Nc2nc(/C=C/c3ccccc3)nc3ccccc23)cc1 [3c],95.3,2.64,–,–,37.3 ± 9.36,–,–
Nc1ccc(Oc2nc(/C=C/c3ccccc3)nc3ccccc23)cc1 [3v],94.3,3.5,–,–,> 50,did not inhibit,–
FC(F)(F)c1ccc(Nc2nc(/C=C/c3ccccc3)nc3ccccc23)cc1 [3u],16.8,16.4,–,–,–,–,–
FC(F)(F)c1cc(Nc2nc(/C=C/c3ccccc3)nc3ccccc23)cc(C(F)(F)F)c1 [3t],20.8,10.8,–,–,–,–,–
COC(=O)CCNc1nc(/C=C/c2ccccc2)nc2ccccc12 [3l],46.2,14.9,–,–,–,–,–
Fc1ccc(Nc2nc(/C=C/c3ccccc3)nc3ccccc23)cc1F [3f],27.6,-14.5,–,–,–,–,–
